Measured values reported in patent US9511112B2, “Antibacterial composition for topical use” (GENERAL TOPICS S.r.l., priority 2012, dated 2016).
Structures can show the parent of a compound that is named as a salt.

System: bacterial population
Experiment: Microbiocidal activity by the same methods, triethyl citrate alone versus composition
Format: cell-based
Conditions: 4.5 w/w % in water q.s. to 100 w/w %, without the Peptide

## CCOC(=O)CC(O)(CC(=O)OCC)C(=O)OCC [triethyl citrate, triethyl-2-hydroxypropane-1,2,3-tricarboxylate]
  survival of the bacterial population: 25%
